Measurements: article PMC12808645 (Nature Communications, 2025)

Tests used:
Nan-Iav = format: cell-based, Halyomorpha halys
NanY177A-Iav [1] = format: binding, Halyomorpha halys
NanY177F-Iav [2] = format: binding, Halyomorpha halys
NanY172F-Iav [3] = format: binding, Halyomorpha halys
NanY172A-Iav [4] = format: binding, Halyomorpha halys
NanY177A-Iav [5] = experiment: Whole-cell electrophysiology, NanY177A-Iav; format: cell-based, Halyomorpha halys
NanY177F-Iav [6] = format: binding, Halyomorpha halys; remark: listed apart in the source
NanY172F-Iav [7] = format: binding, Halyomorpha halys; remark: listed apart in the source
NanY177A-Iav [8] = format: binding, Halyomorpha halys; remark: listed apart in the source
NanY172A-Iav [9] = format: binding, Halyomorpha halys; remark: listed apart in the source

## [Ca+2] [Ca^2+]
Nan-Iav
  % inhibition of inward current: ~ 50%
  % inhibition of outward current: ~ 20%

## NC(=O)c1cccnc1 [NAM, nicotinamide]
NanY177A-Iav [1]
  lowering of NAM binding affinity relative to WT: > 100 fold
NanY177A-Iav [1]; read-out: Ki NAM, competition with [3H]-AP, affinities exceeding 10 mM could not be accurately determined
  Ki: > 10000 µM
NanY177F-Iav [2]
  weaker NAM affinity than WT: ~ 10 fold
Nan-Iav; 1 mM NAM, ±60 mV
  effect on whole-cell current: robustly stimulated
Nan-Iav; prolonged or repeated application, washout
  desensitization and reversibility of evoked currents: non-desensitizing upon prolonged or repeated application and are reversible upon washout
Nan-Iav; read-out: apparent EC50
  EC50: ~100 µM
NanY172F-Iav [3]
  increase of Ki for NAM relative to WT: ~ 10 fold
NanY172A-Iav [4]
  raising of Ki for NAM relative to WT: two orders of magnitude
NanY177A-Iav [5]
  NAM-induced channel activity: abolishes

## C[C@]1(COC(=O)C2CC2)[C@@H]2C[C@H](O)[C@@]3(C)Oc4cc(-c5cccnc5)oc(=O)c4[C@H](O)[C@@H]3[C@@]2(C)CC[C@@H]1OC(=O)C1CC1 [[^3H]-AP]
NanY177F-Iav [6]
  [3H]-AP Kd compared with WT: similar
NanY172F-Iav [7]
  difference in [3H]-AP Kd relative to WT: 3 fold
NanY177A-Iav [8]
  greater [3H]-AP Kd than WT: ~ 200 fold
NanY172A-Iav [9]
  increase in [3H]-AP Kd relative to WT: ~ 100 fold

## N.N.N.N.N.N.N.N.N.N.N.N.N.N.[Cl-].[Cl-].[Cl-].[Cl-].[Cl-].[Cl-].[O-2].[O-2].[Ru+3].[Ru+3].[Ru+4] [ruthenium red]
Nan-Iav; pore blocker
  effect on AP-elicited current: inhibited
